# According to patent publication US8802597B2, “Herbicidal pyrimidines” (E I du Pont de Nemours and Company, priority 2003, dated 2014):
# Key:
# Test in all cases: Test J mixtures of compound 58 with azimsulfuron, flooded paddy
# Type in all cases: in vivo
# Conditions in all cases: 21 days, scale 0-100
# [1] = test system: ducksalad (HETLI; Heteranthera limosa)
# Source text: (§1) This test evaluated the effect of mixtures of compound 58 with azimsulfuron on several plant species. Three plastic pots (ca. 16-cm diameter) per rate were partially filled with sterilized Tama silt loam soil comprising a 35:50:15 ratio of sand, silt and clay and 2.6% organic matter. Separate plantings for each of the three pots were as follows. Seeds from the U.S. of ducksalad (HETLI; Heteranthera limosa), smallflower umbrella sedge (CYPDI; Cyperus difformis) and purple redstem (AMMCO; Ammannia coccinea), were planted into one 16-cm pot for each rate. Seeds from the U.S. of bearded sprangletop (LEFUF; Leptochloa fusca ssp. fascicularis), one stand of 9 or 10 water-seeded rice seedlings (ORYSW; Oryza sativa cv. ‘Japonica-M202’), and one stand of 6 transplanted rice seedlings (ORYSP; Oryza sativa cv. ‘Japonica-M202’) were planted into one 16-cm pot for each rate. Seeds from the U.S. of barnyardgrass (ECHCG; Echinochloa crus-galli), late watergrass (ECOR2; Echinochloa oryzicola), early watergrass (ECHOR; Echinochloa oryzoides) and junglerice (ECHCO; Echinochloa colona) were planted into one 16-cm pot for each rate. Plantings were sequential so that crop and weed species were at the 2.0 to 2.5-leaf stage at time of treatment.
# (§2) Potted plants were grown in a greenhouse with day/night temperature settings of 29.5/26.7° C., and supplemental balanced lighting was provided to maintain a 16-hour photoperiod. Test pots were maintained in the greenhouse until test completion.
# (§3) At time of treatment, test pots were flooded to 3 cm above the soil surface and then treated by application directly to the paddy water of test compounds formulated in a non-phytotoxic solvent mixture which included a surfactant. The pots were maintained at the 3-cm water depth for the duration of the test. Treatments consisted of compound 58 and azimsulfuron alone and in combination. Effects of treatments on rice and weeds were visually evaluated by comparison to untreated controls after 21 days. Plant response ratings were calculated as the means of the three replicates and are summarized in Table J. The ratings are based on a scale of 0 to 100 where 0 is no effect and 100 is complete control. A dash (-) response means no test result. Colby's Equation was used to determine the herbicidal effects expected from the mixtures.
# [2] = test system: early watergrass (ECHOR; Echinochloa oryzoides)
# Source text: as §1, §2, §3
# [3] = test system: barnyardgrass (ECHCG; Echinochloa crus-galli)
# Source text: as §1, §2, §3
# [4] = test system: late watergrass (ECOR2; Echinochloa oryzicola)
# Source text: as §1, §2, §3
# [5] = test system: junglerice (ECHCO; Echinochloa colona)
# Source text: as §1, §2, §3
# [6] = test system: purple redstem (AMMCO; Ammannia coccinea)
# Source text: as §1, §2, §3
# [7] = test system: bearded sprangletop (LEFUF; Leptochloa fusca ssp. fascicularis)
# Source text: as §1, §2, §3
# [8] = test system: smallflower umbrella sedge (CYPDI; Cyperus difformis)
# Source text: as §1, §2, §3
# [9] = test system: transplanted rice seedlings (ORYSP; Oryza sativa cv. ‘Japonica-M202’)
# Source text: as §1, §2, §3
# [10] = test system: water-seeded rice seedlings (ORYSW; Oryza sativa cv. ‘Japonica-M202’)
# Source text: as §1, §2, §3
structure (smiles),measurement,setting,value
COc1cc(OC)nc(NC(=O)NS(=O)(=O)c2c(-c3nnn(C)n3)cnn2C)n1 [Azimsulfuron],HETLI Obsd.,[1]; Azimsulfuron 2 g a.i./ha alone,30
same,HETLI Obsd.,[1]; Azimsulfuron 4 g a.i./ha alone,30
same,HETLI Obsd.,[1]; Azimsulfuron 8 g a.i./ha alone,100
same,ECHOR Obsd.,[2]; Azimsulfuron 2 g a.i./ha alone,0
same,ECHOR Obsd.,[2]; Azimsulfuron 4 g a.i./ha alone,0
same,ECHOR Obsd.,[2]; Azimsulfuron 8 g a.i./ha alone,40
same,ECHCG Obsd.,[3]; Azimsulfuron 2 g a.i./ha alone,0
same,ECHCG Obsd.,[3]; Azimsulfuron 4 g a.i./ha alone,0
same,ECHCG Obsd.,[3]; Azimsulfuron 8 g a.i./ha alone,30
same,ECOR2 Obsd.,[4]; Azimsulfuron 2 g a.i./ha alone,0
same,ECOR2 Obsd.,[4]; Azimsulfuron 4 g a.i./ha alone,0
same,ECOR2 Obsd.,[4]; Azimsulfuron 8 g a.i./ha alone,50
same,ECHCO Obsd.,[5]; Azimsulfuron 2 g a.i./ha alone,0
same,ECHCO Obsd.,[5]; Azimsulfuron 4 g a.i./ha alone,0
same,ECHCO Obsd.,[5]; Azimsulfuron 8 g a.i./ha alone,40
same,AMMCO Obsd.,[6]; Azimsulfuron 2 g a.i./ha alone,0
same,AMMCO Obsd.,[6]; Azimsulfuron 4 g a.i./ha alone,0
same,AMMCO Obsd.,[6]; Azimsulfuron 8 g a.i./ha alone,95
same,LEFUF Obsd.,[7]; Azimsulfuron 2 g a.i./ha alone,0
same,LEFUF Obsd.,[7]; Azimsulfuron 4 g a.i./ha alone,0
same,LEFUF Obsd.,[7]; Azimsulfuron 8 g a.i./ha alone,0
same,CYPDI Obsd.,[8]; Azimsulfuron 2 g a.i./ha alone,95
same,CYPDI Obsd.,[8]; Azimsulfuron 4 g a.i./ha alone,100
same,CYPDI Obsd.,[8]; Azimsulfuron 8 g a.i./ha alone,100
same,ORYSP Obsd.,[9]; Azimsulfuron 2 g a.i./ha alone,0
same,ORYSP Obsd.,[9]; Azimsulfuron 4 g a.i./ha alone,0
same,ORYSP Obsd.,[9]; Azimsulfuron 8 g a.i./ha alone,0
same,ORYSW Obsd.,[10]; Azimsulfuron 2 g a.i./ha alone,0
same,ORYSW Obsd.,[10]; Azimsulfuron 4 g a.i./ha alone,0
same,ORYSW Obsd.,[10]; Azimsulfuron 8 g a.i./ha alone,10
